From ChEMBL document CHEMBL3046559, “Sterile oat (Avena sterilis L.) cross-resistance profile to ACCase-inhibiting herbicides in Greece” (2012)

Assays:
Format in all cases: functional
[1] = tested on: Avena sterilis; test: Herbicidal activity against Avena sterilis accession P02 assessed as weed survival at 16 times field recommended herbicide dose
[2] = tested on: Avena sterilis; test: Herbicidal activity against Avena sterilis accession P15 assessed as weed survival at 8 times field recommended herbicide dose
[3] = tested on: Avena sterilis; test: Herbicidal activity against Avena sterilis accession P18 assessed as weed survival at 4 times field recommended herbicide dose
[4] = tested on: Avena sterilis; test: Herbicidal activity against Avena sterilis accession P21S assessed as weed survival at 1/8 times field recommended herbicide dose
[5] = tested on: Avena sterilis; test: Herbicidal activity against Avena sterilis accession P11 assessed as weed survival at 32 times field recommended herbicide dose
[6] = tested on: Avena sterilis; test: Herbicidal activity against Avena sterilis accession P11 assessed as induction of weed mortality
[7] = tested on: Avena sterilis; test: Herbicidal activity against Avena sterilis accession P16 assessed as weed survival at 8 times field recommended herbicide dose
[8] = tested on: Avena sterilis; test: Herbicidal activity against Avena sterilis accession P10S assessed as weed survival at 1/8 times field recommended herbicide dose
[9] = tested on: Avena sterilis; test: Herbicidal activity against Avena sterilis accession P17 assessed as weed survival at 1 times field recommended herbicide dose
[10] = tested on: Avena sterilis; test: Herbicidal activity against Avena sterilis accession P02 assessed as weed survival at 4 times field recommended herbicide dose
[11] = tested on: Avena sterilis; test: Herbicidal activity against Avena sterilis accession P06S assessed as weed survival at 1/8 times field recommended herbicide dose
[12] = tested on: Avena sterilis; test: Herbicidal activity against Avena sterilis accession P20 assessed as weed survival at 4 times field recommended herbicide dose
[13] = tested on: Avena sterilis; test: Herbicidal activity against Avena sterilis accession P15 assessed as weed survival at 4 times field recommended herbicide dose
[14] = tested on: Avena sterilis; test: Herbicidal activity against Avena sterilis accession P17 assessed as weed survival at 16 times field recommended herbicide dose
[15] = tested on: Avena sterilis; test: Herbicidal activity against Avena sterilis accession P11 assessed as weed survival at 4 times field recommended herbicide dose
[16] = tested on: Avena sterilis; test: Herbicidal activity against Avena sterilis accession P08 assessed as weed survival at 32 times field recommended herbicide dose
[17] = tested on: Avena sterilis; test: Herbicidal activity against Avena sterilis accession P20 assessed as weed survival at 32 times field recommended herbicide dose
[18] = tested on: Avena sterilis; test: Herbicidal activity against Avena sterilis accession P15 assessed as weed survival at 1 times field recommended herbicide dose
[19] = tested on: Avena sterilis; test: Herbicidal activity against Avena sterilis accession P09 assessed as weed survival at 4 times field recommended herbicide dose
[20] = tested on: Avena sterilis; test: Herbicidal activity against Avena sterilis accession P08 assessed as weed survival at 16 times field recommended herbicide dose
[21] = tested on: Avena sterilis; test: Herbicidal activity against Avena sterilis accession P05 assessed as weed survival at 16 times field recommended herbicide dose
[22] = tested on: Avena sterilis; test: Herbicidal activity against Avena sterilis accession P06S assessed as weed survival at 1/32 times field recommended herbicide dose
[23] = tested on: Avena sterilis; test: Herbicidal activity against Avena sterilis accession P01 assessed as induction of weed mortality
[24] = tested on: Avena sterilis; test: Herbicidal activity against Avena sterilis accession P08 assessed as weed survival at 8 times field recommended herbicide dose
[25] = tested on: Avena sterilis; test: Herbicidal activity against Avena sterilis accession P17 assessed as weed survival at 4 times field recommended herbicide dose
[26] = tested on: Avena sterilis; test: Herbicidal activity against Avena sterilis accession P18 assessed as weed survival at 32 times field recommended herbicide dose
[27] = tested on: Avena sterilis; test: Herbicidal activity against Avena sterilis accession P11 assessed as weed survival at 16 times field recommended herbicide dose
[28] = tested on: Avena sterilis; test: Herbicidal activity against Avena sterilis accession P14 assessed as weed survival at 1 times field recommended herbicide dose
[29] = tested on: Avena sterilis; test: Herbicidal activity against Avena sterilis accession P07 assessed as weed survival at 16 times field recommended herbicide dose
[30] = tested on: Avena sterilis; test: Herbicidal activity against Avena sterilis accession P18 assessed as weed survival at 1 times field recommended herbicide dose
[31] = tested on: Avena sterilis; test: Herbicidal activity against Avena sterilis accession P16 assessed as weed survival at 32 times field recommended herbicide dose
[32] = tested on: Avena sterilis; test: Herbicidal activity against Avena sterilis accession P04 assessed as induction of weed mortality
[33] = tested on: Avena sterilis; test: Herbicidal activity against Avena sterilis accession P17 assessed as weed survival at 8 times field recommended herbicide dose
[34] = tested on: Avena sterilis; test: Herbicidal activity against Avena sterilis accession P22 assessed as weed survival at 1 times field recommended herbicide dose
[35] = tested on: Avena sterilis; test: Herbicidal activity against Avena sterilis accession P13S assessed as induction of weed mortality
[36] = tested on: Avena sterilis; test: Herbicidal activity against Avena sterilis accession P21S assessed as induction of weed mortality
[37] = tested on: Avena sterilis; test: Herbicidal activity against Avena sterilis accession P01 assessed as weed survival at 1 times field recommended herbicide dose
[38] = tested on: Avena sterilis; test: Herbicidal activity against Avena sterilis accession P13S assessed as weed survival at 1/16 times field recommended herbicide dose
[39] = tested on: Avena sterilis; test: Herbicidal activity against Avena sterilis accession P18 assessed as weed survival at 16 times field recommended herbicide dose
[40] = tested on: Avena sterilis; test: Herbicidal activity against Avena sterilis accession P06S assessed as weed survival at 1 times field recommended herbicide dose
[41] = tested on: Avena sterilis; test: Herbicidal activity against Avena sterilis accession P11 assessed as weed survival at 8 times field recommended herbicide dose
[42] = tested on: Avena sterilis; test: Herbicidal activity against Avena sterilis accession P19S assessed as weed survival at 1/8 times field recommended herbicide dose
[43] = tested on: Avena sterilis; test: Herbicidal activity against Avena sterilis accession P22 assessed as induction of weed mortality
[44] = tested on: Avena sterilis; test: Herbicidal activity against Avena sterilis accession P21S assessed as weed survival at 1/32 times field recommended herbicide dose
[45] = tested on: Avena sterilis; test: Herbicidal activity against Avena sterilis accession P02 assessed as weed survival at 1 times field recommended herbicide dose
[46] = tested on: Avena sterilis; test: Herbicidal activity against Avena sterilis accession P02 assessed as weed survival at 8 times field recommended herbicide dose
[47] = tested on: Avena sterilis; test: Herbicidal activity against Avena sterilis accession P21S assessed as weed survival at 1/4 times field recommended herbicide dose
[48] = tested on: Avena sterilis; test: Herbicidal activity against Avena sterilis accession P01 assessed as weed survival at 32 times field recommended herbicide dose
[49] = tested on: Avena sterilis; test: Herbicidal activity against Avena sterilis accession P03 assessed as weed survival at 16 times field recommended herbicide dose
[50] = tested on: Avena sterilis; test: Herbicidal activity against Avena sterilis accession P19S assessed as induction of weed mortality
[51] = tested on: Avena sterilis; test: Herbicidal activity against Avena sterilis accession P22 assessed as weed survival at 32 times field recommended herbicide dose
[52] = tested on: Avena sterilis; test: Herbicidal activity against Avena sterilis accession P03 assessed as weed survival at 32 times field recommended herbicide dose
[53] = tested on: Avena sterilis; test: Herbicidal activity against Avena sterilis accession P01 assessed as weed survival at 16 times field recommended herbicide dose
[54] = tested on: Avena sterilis; test: Herbicidal activity against Avena sterilis accession P08 assessed as induction of weed mortality
[55] = tested on: Avena sterilis; test: Herbicidal activity against Avena sterilis accession P11 assessed as weed survival at 1 times field recommended herbicide dose
[56] = tested on: Avena sterilis; test: Herbicidal activity against Avena sterilis accession P05 assessed as induction of weed mortality
[57] = tested on: Avena sterilis; test: Herbicidal activity against Avena sterilis accession P22 assessed as weed survival at 16 times field recommended herbicide dose
[58] = tested on: Avena sterilis; test: Herbicidal activity against Avena sterilis accession P16 assessed as weed survival at 4 times field recommended herbicide dose

Question: `CCO/N=C(\CC)C1=C(O)CC(c2c(C)cc(C)cc2C)CC1=O` (stereo not drawn) [TRALKOXYDIM] was tested. Which Survival [1] did it give?
Answer: The Survival was 0%.

Question: What about the Survival [2] of the same molecule?
Answer: The Survival was 20%.

Question: What about the Survival [3] of the same molecule?
Answer: The Survival was 20%.

Question: And the Survival [4]?
Answer: Its Survival is 77%.

Question: And the Survival [5]?
Answer: The Survival was 0%.

Question: And the GR50 [6]?
Answer: The GR50 was under 400 gAi/ha.

Question: What about the Survival [7] of the same molecule?
Answer: The Survival was 17%.

Question: What about the Survival [8] of the same molecule?
Answer: Its Survival is 30%.

Question: What about the Survival [9] of the same molecule?
Answer: The Survival was 50%.

Question: What about the Survival [10] of the same molecule?
Answer: The Survival was 40%.

Question: What about the Survival [11] of the same molecule?
Answer: The Survival was 30%.

Question: What about the Survival [12] of the same molecule?
Answer: The Survival was 80%.

Question: And the Survival [13]?
Answer: Its Survival is 20%.

Question: And the Survival [14]?
Answer: The Survival was 0%.

Question: What about the Survival [15] of the same molecule?
Answer: The Survival was 0%.

Question: What about the Survival [16] of the same molecule?
Answer: The Survival was 0%.

Question: What about the Survival [17] of the same molecule?
Answer: The Survival was 20%.

Question: And the Survival [18]?
Answer: Its Survival is 70%.

Question: What about the Survival [19] of the same molecule?
Answer: Its Survival is 20%.

Question: What about the Survival [20] of the same molecule?
Answer: Its Survival is 0%.

Question: What about the Survival [21] of the same molecule?
Answer: The Survival was 0%.

Question: What about the Survival [22] of the same molecule?
Answer: Its Survival is 80%.

Question: What about the GR50 [23] of the same molecule?
Answer: Its GR50 is 766 gAi/ha.

Question: What about the Survival [24] of the same molecule?
Answer: Its Survival is 17%.

Question: What about the Survival [25] of the same molecule?
Answer: Its Survival is 20%.

Question: What about the Survival [26] of the same molecule?
Answer: Its Survival is 0%.

Question: And the Survival [27]?
Answer: The Survival was 0%.

Question: What about the Survival [28] of the same molecule?
Answer: Its Survival is 0%.

Question: What about the Survival [29] of the same molecule?
Answer: Its Survival is 0%.

Question: And the Survival [30]?
Answer: The Survival was 20%.

Question: What about the Survival [31] of the same molecule?
Answer: The Survival was 0%.

Question: And the GR50 [32]?
Answer: The GR50 was 7591 gAi/ha.

Question: And the Survival [33]?
Answer: Its Survival is 7%.

Question: And the Survival [34]?
Answer: Its Survival is 57%.

Question: And the GR50 [35]?
Answer: The GR50 was 34 gAi/ha.

Question: What about the GR50 [36] of the same molecule?
Answer: Its GR50 is 84 gAi/ha.

Question: And the Survival [37]?
Answer: Its Survival is 60%.

Question: And the Survival [38]?
Answer: The Survival was 67%.

Question: And the Survival [39]?
Answer: The Survival was 0%.

Question: And the Survival [40]?
Answer: The Survival was 0%.

Question: And the Survival [41]?
Answer: Its Survival is 0%.

Question: And the Survival [42]?
Answer: Its Survival is 93%.

Question: What about the GR50 [43] of the same molecule?
Answer: The GR50 was 434 gAi/ha.

Question: And the Survival [44]?
Answer: Its Survival is 100%.

Question: And the Survival [45]?
Answer: Its Survival is 77%.

Question: And the Survival [46]?
Answer: The Survival was 20%.

Question: What about the Survival [47] of the same molecule?
Answer: The Survival was 33%.

Question: And the Survival [48]?
Answer: Its Survival is 0%.

Question: What about the Survival [49] of the same molecule?
Answer: The Survival was 20%.

Question: And the GR50 [50]?
Answer: The GR50 was 11 gAi/ha.

Question: And the Survival [51]?
Answer: Its Survival is 0%.

Question: What about the Survival [52] of the same molecule?
Answer: The Survival was 17%.

Question: What about the Survival [53] of the same molecule?
Answer: The Survival was 0%.

Question: What about the GR50 [54] of the same molecule?
Answer: Its GR50 is 781 gAi/ha.

Question: And the Survival [55]?
Answer: Its Survival is 17%.

Question: What about the GR50 [56] of the same molecule?
Answer: Its GR50 is under 400 gAi/ha.

Question: And the Survival [57]?
Answer: Its Survival is 20%.

Question: What about the Survival [58] of the same molecule?
Answer: Its Survival is 30%.
